Patent publication EP3650451A1, “COMPOUNDS AND THEIR USES AS FLUORESCENT PROBES” (Consejo Superior de Investigaciones Cientificas, priority 2017, dated 2019)
Blank lines part the entries; values can stand above or below the molecule they belong to.

Legend:
[1] = Stability in water: time evolution in D2O followed by 1H NMR (hydrolysis); assay type: physicochemical; conditions: 15 mM solution in D2O at 25 °C, read-out: t1/2 (hydrolysis) (converted)
Description: One of the critical factors that conditions the viability and applicability of functional dyes 3 and 4 as fluorescent mitochondrial probes is their stability in water, since these compounds contain two potentially labile B-O bonds linking the fluorophore with the carnitine substituent. This stability was determined analyzing the time evolution of 3 and 4 in a 15 mM solution in D2O at 25 °C using ^1H NMR. This technique makes it possible not only to define their stability, but also to identify the possible degradation products (Diagram 2). Both probes are hydrolyzed, generating free carnitine and the corresponding 4,4-dihydroxy-BODIPY derivatives 5 and 6. [drawing 8]
Compound 3 is quickly hydrolyzed (t1/2 = 10 min); however, the greater substitution of the tetramethylated derivative in 4 gives it greater stability (t1/2 = 6 h), which promotes its use as a fluorescent marker in live cells. Contrary to what might be believed, the generation of free carnitine and of the corresponding BODIPY derivatives 5 and 6 at physiological pH is, indeed, an advantage for its application in cell labels. Thus, (R)-carnitine is incorporated into the mitochondrial metabolism, while the boron of the hydrolyzed BODIPY can covalently bond to poly-hydroxilated molecules (for example, saccharides and glycoproteins), generating cyclic boronic esters. […]

[2] = Photophysical characterization: absorption and fluorescence spectra; assay type: physicochemical
Description: The photophysical characterization of probes 3 and 4 was carried out analyzing the corresponding absorption and fluorescence spectra in the UV-visible region of the spectrum.
Its photophysical behavior is dependent on the degree of substitution of the BODIPY, since the alkylation of the chromatophore induces sufficient steric hindrance to reduce the free rotation of the 8-mesityl group, a process that entails a significant reduction in fluorescence efficiency. Thus, probe 4 in water stands out for having a high molar absorption coefficient (3.8 × 10^4 M^-1 cm^-1 at 499 nm) and a very efficient fluorescence emission at 511 nm, with a quantum yield of up to 80%.

SCC38 = assay: Kinetics of cell labeling by flow cytometry; assay type: cell-based, human; conditions: SCC38, 50 nM, staining times 5, 15 and 30 min
Description: (§1) The cell assays were carried out on two human cell lines: SCC38 and HeLa. The SCC38 line is derived from human laryngeal epidermoid carcinoma patients, while HeLa, the first human cell line established in culture, is derived from cervical cancer. The culture medium used for both cell lines was DMEM (Dulbecco's Modified Eagle's Medium) supplemented with 10% of fetal bovine serum (FBS), 100 U/mL of penicillin, 200 µg/mL of streptomycin, 100 µmol/L of non-essential amino acids and 2 mmol/L of glutamine. The cultures were incubated at 37 °C and 5% of CO2.
(§2) The kinetics of cell labeling with 4 was studied by flow cytometry with the SCC38 and HeLa cell lines, using MitoTracker® Red as a control marker, both at a concentration of 50 nM. The staining times studied were 5, 15, 30 and 45 minutes. After staining, the medium was removed, washed with PBS, trypsinized and the pellet was resuspended in 500 µL of PBS and introduced in the cytometer after filtration. A Beckman Coulter Cytomics FC500 Flow Cytometry Analyzer was used (Scientific-Technical Services, Universidad de Oviedo). Part of the resuspended cells were also plated and observed under the microscope.

HeLa = assay: Kinetics of cell labeling by flow cytometry; assay type: cell-based, human; conditions: 50 nM, staining times 5, 15 and 30 min
Description: as §1, §2

SCC38 cells [3] = assay: Labeling in the presence of FCCP (depolarized mitochondrial membrane), flow cytometry; assay type: cell-based, human; conditions: 60 µM FCCP for 3 h at 37 °C before staining; 20 nM of 4 or 0.5 nM of MitoTracker
Description: (§3) • Fig. 1. In vivo labeling of SCC38 cells with compound 4 at different concentrations (50, 100 and 500 nM). Scale bar: 10 µm • Fig. 2. Flow cytometry studies in SCC38 and HeLa cell lines labeled with compound 4 and Mito Tracker® Red. Histograms wherein fluorescence intensity vs number of events is represented for each of the staining times (5, 15 and 30 min) and control (Ctrl), for the SCC38 and HeLa cells and for each of the two markers. • Fig. 3. Absorption (A) and fluorescence (B) spectra, normalized to molar absorption and fluorescence quantum yield of probe 4 in different solvents; chloroform (green), acetone (black), acetonitrile (red), ethanol (blue) and water (gray). • Fig. 4. […] (A) Flow cytometry analysis of SCC38 cells incubated in the presence (+FCCP) or absence (-FCCP) of FCCP 60 µM for 3 h before staining with 20 nM of 4 or 0.5 nm of MitoTracker. The data represent the mean fluorescence intensity (MFI) of the stained cells. (B) Microscopy analysis of SCC38 cells pretreated or not with FCCP before co-staining with 20 nM of 4 and 0.5 nm of MitoTracker. The graphs show the fluorescence profiles of the regions of interest indicated with white lines in the right-hand panels. Scale bars: 10 µm). • Fig. 5. […] The data represent the mean fluorescence intensity (MFI) of the stained cells (upper panels) and representative images of the cytometry profiles (lower panels). • Fig. 7. […] (B) The data represent the mean fluorescence intensity (MFI) of the labeled cells.
The labeling was analyzed by flow cytometry in the presence of carbonyl cyanide-p-(trifluoromethoxy)phenylhydrazone (FCCP), a protonophore used to reduce the mitochondrial membrane potential (ΔΨm) through depolarization of the mitochondrial membrane. […] Indeed, the suppression of dye-mitochondria electrostatic attraction as a passive labeling mechanism reduces the concentration of the dye in the cell organelle and, thus, the probability and extent of the fluorescence deactivation processes, with the ensuing increase in their efficiency. […]

SCC38 cells [4] = assay: Co-localization by co-staining with MitoTracker Red, fluorescence microscopy of live cells; assay type: cell-based, human; conditions: co-staining, compound 4 50 nM, MitoTracker® Red 25 nM, 30 minutes
Description: as §1
These cell lines were stained with the fluorescent probes synthesized following the following protocol: 30,000-50,000 SCC38 cells were plated on 24-well glass-bottomed plates and cultured to 70% confluence. The culture medium was then removed from the well and washed at least three times with DMEM medium without additives. Next, 1 mL of DMEM and the corresponding fluorescent compound was added to the well. The cells were incubated at 37 °C for 30 minutes, after which the medium was removed and newly washed with DMEM. Lastly, complete medium was added and the cells were observed under the microscope. Microscopy analysis was performed using a Zeiss Axio Observer Z1 microscope with AxioCam MRM and ApoTome 2 (Carl Zeiss, Germany) with different 40X 63X oil immersion objectives. The cells were also stained with MitoTracker® Red CMXRos (Thermo Fisher), following the manufacturer's instructions, with the aim of carrying out comparative studies with the new fluorescent markers synthesized herein. Initially, both compounds 3 and 4 were used at a concentration of 50 nM, and staining time was also 30 minutes.
In order to confirm the specificity of the mitochondrial labeling, co-localization studies were carried out by co-staining with the commercial mitochondrial marker MitoTracker® Red in the cell line. Compound 4 was used at a concentration of 50 nM and MitoTracker® Red at 25 nM. Both compounds were added simultaneously and incubated for 30 minutes.

SCC38 cells [5] = assay: Inhibition of mitochondrial staining by (R)-palmitoylcarnitine (CACT substrate), flow cytometry; assay type: cell-based, human; conditions: co-incubation, probe 50 nm, (R)-palmitoylcarnitine 100, 250 and 500 nM
Description: The SCC38 cells were co-incubated with the indicated concentrations of (R)-palmitoylcarnitine and 50 nM of 4 (A) or 50 nM of MitoTracker (B) before analyzing by flow cytometry. The data represent the mean fluorescence intensity (MFI) of the stained cells (upper panels) and representative images of the cytometry profiles (lower panels). • Fig. 7.
To test if CACT was in fact involved in the channeling of 4 to the mitochondrial matrix, we firstly studied the effect of (R)-(+)-palmitoylcarnitine, a natural CACT substrate, in cell labeling by 4.

SCC38 cells [6] = assay: Stereospecificity of the mitochondrial labeling, flow cytometry; assay type: cell-based, human; conditions: all the selected concentrations, 30 min incubation
Description: as §3, with “cells. […]” for “cells. (B) Microscopy analysis of SCC38 cells pretreated or not with FCCP before co-staining with 20 nM of 4 and 0.5 nm of MitoTracker.”, “panels.” for “panels. Scale bars: 10 µm). • Fig. 5.”, “cells. […]” for “cells.”

half-life at 15000 µM [1]: 10 min
kfl: Radiative decay constant ([2]; Water): 0.66 10^8s^- 1
knr: Non-Radiative decay constant ([2]; Water): 1.00 10^8s^- 1
Δv: Stokes shift ([2]; Water): 542 cm⁻¹
εmax: Molar extinction coefficient at the absorption peak ([2]; Water): 4.1 × 10^4 (M^-1 cm^- 1)
λab: Absorption peak wavelength ([2]; Water): 501 nm
τ: Fluorescence lifetime ([2]; Water): 6.00 ns
λfl: Fluorescence peak wavelength ([2]; Water, excitation at 490 nm): 515 nm
φf: Quantum yield ([2]; Water, reference PM567 in ethanol): 0.40
SMILES: Cc1cc(C)c(C2=C3C=CC=[N+]3[B-]3(OC(=O)C[C@H](C[N+](C)(C)C)O3)n3cccc32)c(C)c1 (stereo partly shown) [Compound 3]
tendency towards H- or J- type aggregation ([2]; concentrations as high as 10^-4 M): not exhibit any tendency towards H- or J- type aggregation

SMILES: ClCc1ccc(C2=c3cc4c5c(c3Oc3c2cc2c6c3CCCN6CCC2)CCC[N+]=5CCC4)cc1 [MitoTracker® Red, reference compound]
change of staining intensity with incubation time (SCC38): barely varied upon increasing incubation time
change of staining intensity with incubation time (HeLa): barely varied upon increasing incubation time
mitochondrial fluorescence of cells treated with FCCP (SCC38 cells [3]): highly attenuated mitochondrial fluorescence
location of the stain in the mitochondria (SCC38 cells [4]): concentrated along the edges of the mitochondria
effect of (R)-palmitoylcarnitine on fluorescence intensity (SCC38 cells [5]): only a slight increase of fluorescence

SMILES: CC1=CC(C)=[N+]2C1=C(c1c(C)cc(C)cc1C)c1c(C)cc(C)n1[B-]21OC(=O)C[C@@H](C[N+](C)(C)C)O1 (stereo partly drawn) [(S)-4]
fluorescence intensity compared with 4 (SCC38 cells [6]): considerably lower
